Experimental data published in patent publication US20210220241A1, “Body Sculpting” (Sculpt B.V., priority 2014, published 2021).
Structures can show the parent of a compound that is named as a salt. Where two headings read alike, the source gives them in different places.

Experiments:
[1] = Stability / hydrolysis in PBS at 37 degrees (Example 6); type: physicochemical
Method: Samples were analyzed using HPLC UV.

[2] = system: human fat suspension; experiment: In vitro glycerol production assay, 250 mg/ml human fat suspension (Example 9); type: cell-based; settings: for Glycerol production (FIG. 20): 250 mg/ml human fat suspension, 4 hrs at 37 degrees Celsius; for Glycerol content: 4 hrs at 37° C.
Method: Test compounds were added at a concentration as indicated and vials were incubated for 4 hrs at 37° C. Vials were mixed every hour. Glycerol production in 4 hrs was calculated by analyzing glycerol content of the control (a suspension which was not incubated but instead immediately frozen) vs control samples that were incubated for 4 hours. The produced glycerol quantity was set as 100%. The glycerol content of experimental samples was expressed as % of the control.
Experimental samples were frozen after incubation. The fat pellet was removed and upon defrosting, samples were spun down (13000 rpm for 15 min at 4° C.), and clear supernatant was pipetted off and frozen until analysis.
Glycerol was analyzed using an enzymatic kit (Glycerol Assay Kit, Sigma Aldrich). Briefly, in a 96 well plate (Corning), 100 microliter glycerol assay reaction mix was added to 10 microliter samples of supernatant and left to incubate for 20 minutes after shaking for 15 seconds. Absorbance was read by a platereader (Thermo Multiskan FC) at 570 nm. A glycerol calibration line (0.015 microM-1000 microM) was used for quantification.

[3] = system: lipase; settings: inhibitor added 5 minutes before, relative to control; for Effect on hydrolysis of octopamine decanoate in fat suspension: octopamine decanoate 10 microM; for Effect on hydrolysis of synephrine decanoate in fat suspension: synephrine decanoate 10 microM
[4] = system: Male wistar rats; experiment: In vivo effect of hydrogel treatment on waist, weight and plasma glycerol of rats (Example 5); parameters: species or system rat
Method: Male wistar rats (approx. 500 g) were weight daily and waistline was measured. Animals were shaven once weekly at least 12 hours before next treatment to ensure wound healing.
Animals were first treated for 1 month with carbomer hydrogel not containing prodrugs (twice daily abdominal application 3 by 3 cm) , after which animals were treated with 0.5 ml carbomer hydrogel containing 5 mg/ml octopamine decanoate (application concentration 0.277 mg/cm^2). Tail vena blood draws (100 microliter plasma, 5 microliter heparine 500 IE per 100 microliter blood) were taken on the day −8, 21, 36 (start of compound treatment), 51 and 58. Blood was spun off (10 min 14 KRPM) and plasma was stored at −80.
(§1) Blood samples were analyzed for glycerol using an enzymatic kit (Sigma Aldrich) and fluorescence intensity was measured using direct flow injection (Vici valve in combination with shimadzu 10 ADvp hplc pump at 0.15 ml/min, thermo 15*2.1 C18 column prior to valve and using ultrapure water as mobile phase) of 20 microliter into a HPLC fluorescence detector (Shimadzu RF 10Axl). Calibration was performed by preparation of calibration samples 2-1000 microM.

[5] = Plasma levels of octopamine in human volunteers (Example 10); type: in vivo
Method: After thorough washing of hands, blood was sampled using […]. Blood (40 microliter) was sampled using a capillary that protruded the cap of the vial and spun down into 300 microliter vials containing 10 microliter of heparin 20 IE/ml. Plasma was pipetted off and transferred to 300 microliter vials and stored at -20° C. until analysis. Octopamine was analyzed as described in Example 7. […] FIG. 17b), and of octopamine pentanoate (3.98 mg/ml, 2.5 ml, once daily); FIG. 17c). Experiments are an average of one or two experiments (n=1-2).

[6] = In vitro ester hydrolysis assay, control in PBS without tissue (spontaneous hydrolysis); type: physicochemical; settings: 30 degrees
Method: (§2) Octopamine released was measured using a 50 ml beaker thermostated at 30 degrees. 30 ml PBS (stirred) was pumped at 1 ml/min (Gilson minipulse 3) through a UV detector (SPD-10Avp Shimadzu UV/VIS) set at 280 nm and 2.56 AUFS. The outlet was recirculated back to the beaker. UV signal was recorder on a flatbed recorder (Kipp), set at 1 mm/min and 1 mV gain.
(§3) Octopamine and octopamine decanoate solutions (1 mM) were made in ultrapure water adding 1 microliter/ml of 1.8% hydrochloride acid. Octopamine decanoate was sonicated for 30 min at 30 degrees.
(§4) Upon stabilization of the UV detector on PBS, 1 ml of tissue suspension was added to the PBS. Upon stabilization of the UV signal, 5 ml of 1 mM of octopamine decanoate was added. Control experiments were performed without addition of tissue suspension in order to monitor spontaneous hydrolysis of decanoate ester in PBS.

[7] = female, human, 15 min, 10 microM
Method: Human belly adipose tissue was obtained from obese female subjects that underwent esthetic surgery. Tissue was pottered (Potter RW 19 Nr 29795 of Janke & Kunkel KG) in PBS solution (Irvine Scientific) with 5 mM D(+)-glucose monohydrate at 530 rpm using a Teflon potter tip.
Tissue suspension (1, 7.5, 25 or 240 mg fat/ml PBS, or plasma) was stirred and 1.98 ml aliquots were transferred to polypropylene 2 ml screwcap vials (Sarstedt). […] When inhibition of lipase was studied, propranolol or orlistat were added 5 minutes before addition of the prodrug esters (FIG. 10).
15 minutes after addition of the prodrug, lipolysis was stopped by adding 20 microliter of 1.8% HCl. Samples were spun down (13000 rpm for 3 min at 4° C.) and supernatants were stored at −18° C. for analysis.
Samples were analyzed using HPLC UV. A Gilson 234 auto-injector and Shimadzu hplc pump (10 AdVP) was used in conjunction with a shimadzu UV (10AVp) set at 270 nm. Samples were separated using a reversed phase HPLC column (Thermo BDS Hypersil C18 150 mm×2.1 mm, 3 micrometer). The mobile phase consisted of 1.6 g KH2PO4, 110 mg sodium 1-heptane sulfonate, 1 1 ultrapure water, 15 mL methanol and 1 ml acetic acid at a flowrate of 0.175 ml/min.

[8] = system: human fat suspension; experiment: In vitro assay of glycerol production in human fat (Example 3); type: cell-based; settings: 2 hours at 37 degrees Celsius
Method: Human fat tissue was pottered using a teflon potter in 10 ml PBS with 6 mM Glucose (2.4 gram fat tissue per 10 ml). The suspension was transferred to a 50 ml beaker and was gently stirred at 37 degrees Celsius to maintain the homogeneous nature. 0.3 ml suspension was transferred to 2 ml reaction vials, spiked with octopamine (end concentration 1 microM) and octopamine decanoate (end concentration 10 microM and PBS/glucose were added until 2 ml end volume. Vials were incubated at 37 degrees Celsius for 2 hours.
Samples were spun off at 4000 rpm for 2 min and 10 microliter samples were taken after removal of floating fat with a tissue.
as §1, with “Samples” for “Blood samples”, “analyzed” for “analyzed for glycerol”, “Shimadzu” for “shimadzu”, “HPLC” for “hplc”, “10Ax1).” for “10Axl).”

[9] = system: human volunteers; experiment: Application on human volunteers: waistline and skinfold (Example 10); type: in vivo; settings: for Decrease of waistline: same molar concentration
Method: For abdominal/hip experiments 2 male volunteers […] (BMI 25.5 and 28 resp.) monitored belly circumference, and skinfold at belly and hip on a daily basis (8 am mornings). Blood pressure and body weight was monitored daily. […] Hydrogel was applied daily or twice daily as indicated using a 5 ml syringe to measure volume. For abdominal experiments, the indicated volume of hydrogel was applied on the belly around the belly button in a radius of 10 cm. The same volume was applied for hip areas. For leg experiments, 2.5 ml was applied on each leg. Skinfold was assessed by measuring thickness of skin at hips and belly 4 cm from belly button using a skinfold measuring device ([…]-120). […] Experiments are the average of two experiments (n=2). […] Experiments are an average of 2 or 3 runs (n=2-3).

[10] = Skin and fat penetration assay, cubes of human fat with skin (Example 8); type: in vitro ADME
Method: Cubes of human fat (5×5×5 cm) with skin attached from obese female subjects that underwent esthetic surgery was dissected at 4° C. Cubes were transferred to containers so the skin would overlay the rim of the container. 0.25 ml of hydrogels comprising 2.75 mg/ml free octopamine, 5 mg/ml octopamine decanoate or 3.98 mg/ml octopamine pentanoate were applied once and left to penetrate for 20 hrs. Cubes were subsequently frozen at −80° C.
Upon defrosting, skin was carefully removed taking care not to contaminate the underlying fat. The fat was dissected to yield a column of 1×1 cm of fat that was directly under the site of application. The column was sliced to yield 0.5 cm thick slices covering 0-2cm fat depth under the site of application. Tissue was sonicated in 5 ml PBS (5 mM glucose), samples were spun down (13000 rpm for 30 min at 4° C.). Clear supernatant was removed with an injection needle and syringe and frozen until analysis. Analysis of octopamine was performed as described in Example 7.

[11] = system: human volunteers; experiment: Blood pressure, heart rate and side effects in human volunteers (Example 10); settings: humans
[12] = In vitro ester hydrolysis assay in PBS/human fat suspension; type: in vitro ADME; settings: PBS/human fat tissue at concentrations three times higher than rat tissue, in 110 min
Method: Abdominal fat tissue was harvested from male wistar rats (400 g, Harlan Zeist) and stored at −80° C. until use. Human fat tissue was obtained from esthetic surgery and stored at −80° C. until use. Tissue was thuraxed (80 mg/ml for rat tissue and 240 mg/ml for human tissue) for 1 min in Phosphate buffered saline (PBS (Irvine Scientific).
as §2, §3, §4

[13] = Skin penetration chamber, human skin (Example 7); type: in vitro ADME; settings: 0.25 ml hydrogel 2.75 mg/ml, human skin 6.25 cm^2, 2 hours
Method: The chamber was thermostated at 37° C. Samples were drawn from the PBS pottered tissue with a 1 ml syringe and analyzed using LC-mass spectrometry. Given the full conversion, this assay evaluates the total penetration of octopamine prodrug through skin based on equal amounts of octopamine, and compares this to the penetration of an equal amount of octopamine itself. Samples were analyzed using HPLC masspectrometry. A Shimadzu HPLC (LC20AD pump and […] injector) was used in conjunction with a sciex API 4000 Masspectrometer. The HPLC column was a Phenomenex, Synergi Max (BOL-P-RP2.5-036), 3.0×100mm, […], thermostated at 35° C. The mobile phase consisted of Eluent A: 0.1% formic acid (“FA”) in ultrapure water (“UP”) and Eluent B: 70% acetonitrile (“ACN”) +0.1% FA at a total flow of 0.3 ml/min. […] UP/ACN/FA =50/50/0.1. […] Gradients were maintained at 100% B for 0.5 minute. […] Samples were centrifugated for 5 mins at 13000 rpm and 14 μL 0.1% FA in UP was added to 6 μL supernatant and vortexed for 10 sec. The autoinjector was programmed to add 20 μl 0.5 mg/ml […] reagent (online) and inject 35 μl. The […] reagent was prepared by dissolving 5 mg […] in 4.5 ml UP, 5 ml 0.25 M NaHCO3, 0.5 ml methanol (“MeOH”) and 20 microliter 2-mercapto-ethanol.

[14] = humans n=2, hydrogel on belly and hips, 2.5 ml once daily or 5 ml twice daily, after 16 days
[15] = hydrogel 5 mg/ml, 5 ml twice daily on belly and hips

Compound: CNCC(O)c1ccc(O)cc1 (racemic) [synephrine, p-synephrine, reference compound]
- Stability in PBS ([1]; PBS at 37 degrees): stable

Compound: COC(=O)[C@@H]1[C@H]2C[C@H]3c4[nH]c5ccccc5c4CCN3C[C@@H]2CC[C@@H]1O [yohimbine, Yohimbine]
- Glycerol production (FIG. 20) [2]: increased

Compound: CCOC(=O)COc1ccc2c(c1)C[C@@H](NC[C@H](O)c1cccc(Cl)c1)CC2 [SR 58611A, Amibegron]
- Glycerol production (FIG. 20) [2]: increased

Compound: CCCCCCCCCCC[C@@H](C[C@@H]1OC(=O)[C@H]1CCCCCC)OC(=O)[C@H](CC(C)C)NC=O [Orlistat]
- Effect on hydrolysis of octopamine decanoate in fat suspension [3]: further suppresses
- Effect on hydrolysis of synephrine decanoate in fat suspension [3]: further suppresses

Compound: CC(C)(C)NCC(O)COc1cccc2[nH]c(=O)[nH]c12 (stereo not drawn) [CGP12177]
- Glycerol production (FIG. 20) [2]: increased

Compound: CCCCCCCCCC(=O)Oc1ccc(C(O)CN)cc1 (stereo not drawn) [octopamine decanoate, 4-(2-amino-1-hydroxyethyl)phenyl decanoate]
- Animal weights ([4]; 0.5 ml hydrogel 5 mg/ml twice daily abdominal): remained inclining according to their growth curve
- Reduction of waistline ([4]; 0.5 ml hydrogel 5 mg/ml twice daily abdominal, after 3 weeks of treatment): about 10%
- Plasma glycerol levels ([4]; after 15 days of treatment, P=0.101): increased
- Plasma glycerol levels ([4]; after 22 days of treatment, P=0.024): reaching significance
- Plasma levels of free octopamine upon administration of hydrogel ([5]; human, in vivo): did not result in unacceptable plasma levels
- Spontaneous hydrolysis into octopamine, rate [6]: 10 % per 110 min
- Base level of hydrolysis in fat suspension [7]: 40-45%
- Glycerol production (levels) ([8]; end concentration 10 microM, P=0.047): reached significance
- Decrease of waistline [9, 14]: about 4%
- Reduction of skinfold (belly and hip) ([9]; hydrogel 5 mg/ml, 5 ml twice daily, in 20 days): 10-20%
- Penetration through skin and fat tissue [10]: penetrate through both skin and fat tissue
- Blood pressure (systole and diastole) [11, 15]: remained normal
- Heart rate [11, 15]: remained normal
- Side effects ([11]; topical hydrogel treatment regimes): No side effects were reported
- Hydrolysis in PBS compared with plasma or fat tissue ([1]; PBS at 37 degrees): much lower rate
- Conversion by hydrolysis [12]: over 40%

Compound: C[C@H](Cc1ccc2c(c1)OC(C(=O)[O-])(C(=O)[O-])O2)NC[C@H](O)c1cccc(Cl)c1.[Na+].[Na+] [CL 316243]
- Glycerol production (FIG. 20) [2]: increased

Compound: CC(C)NC[C@H](O)COc1cccc2ccccc12 [propranolol, (S)-(-)-Propranolol HCl]
- Effect on hydrolysis of octopamine decanoate in fat suspension [3]: decreases
- Effect on hydrolysis of synephrine decanoate in fat suspension [3]: decreases
- Glycerol content ([2]; concentrations above 1000 nM): decreased
- Glycerol content ([2]; concentrations from 0.1 to at least 1000 nM): more or less constant

Compound: Cc1cccc(C)c1N=C1NCCCS1 [xylazine, Xylazine]
- Glycerol production (FIG. 20) [2]: reduced

Compound: CCCCCCCCCC(=O)Oc1ccc(C(O)CNC)cc1 (stereo not drawn) [synephrine decanoate, 4-(1-hydroxy-2-(methylamino)ethyl)phenyl decanoate]
- Base level of hydrolysis in fat suspension [7]: 40-45%
- Hydrolysis in PBS compared with plasma or fat tissue ([1]; PBS at 37 degrees): much lower rate

Compound: CCc1ccccc1OC[C@@H](O)CN[C@H]1CCCc2ccccc21 [SR 59230]
- Glycerol production (FIG. 20) [2]: reduced

Compound: p-Octopamine [reference compound]
- Plasma levels of free octopamine upon administration of hydrogel ([5]; humans, 2.5 ml or 5 ml hydrogel): acceptable systemic concentrations
- Glycerol production (levels) ([8]; end concentration 1 microM, P=0.10): increased
- Penetration of octopamine through skin [13]: minor penetration
- Decrease of waistline [9, 14]: without effect
- Decrease of waistline ([9]; single individual, hydrogel on belly and hips, after 21 days): without effect
- Penetration through skin and fat tissue ([10]; 0.25 ml hydrogel applied once, 20 hrs): penetrate through both skin and fat tissue
- Stability in PBS [1]: stable

Compound: Cn1c(=O)c2c(ncn2C)n(C)c1=O [caffeine]
- Glycerol production (FIG. 20) [2]: increased
